In patent publication US7537775B2, “Low pH skin care compositions containing dehydroacetic acid” (The Procter & Gamble Company, priority 2005, dated 2009):

Assay: Stability of dehydroacetic acid in aqueous low-pH skin care compositions
Assay type: physicochemical
Settings: observation from formulation attempts
Excerpt: Dehydroacetic acid also has proven effective in improving skin texture and appearance, and has the additional benefit of reducing oily skin. See, for example, Biederman et al., U.S. Pat. No. 6,150,403. […] Therefore, a need remains for stable, low-pH skin care compositions to effect delivery of dehydroacetic acid, either alone or in combination with other low-pH skin care actives.
The present invention describes skin care compositions in which dehydroacetic acid is stabilized at a pH of about 4.5 and below. […] To effect stabilization of dehydroacetic acid, the compositions of the present invention include oils that have both an optimal solubility parameter and limited solubility in water. The present invention describes stable skin care compositions made by a procedure that utilizes this combination of properties to stabilize dehydroacetic acid in its active form at a low-pH.
Herein, “stable” and “stability” mean compositions which are substantially unaltered in chemical or physical state. […] Transport and storage conditions may include prolonged exposure to temperatures of from about −50° F. to about 150° F. Stability may be determined either by empirical observation or by appropriate methods of chemical analysis that would be known to one of skill in the art.

CC(=O)C1C(=O)C=C(C)OC1=O (stereo not shown) [dehydroacetic acid, 3-acetyl-6-methyl-2H-pyran-2,4,(3H)-dione]
pH below which dehydroacetic acid begins to exhibit instability: below 7.0
